Source: US11576897B2, “Therapeutic agent for non-motor symptoms associated with Parkinson's disease” (priority 2017, dated 2023)
Read-outs that look alike come from different tables or passages of the source.

Tests used:
human 5-HT2A receptor = human 5-HT2A receptor (Homo sapiens (Human), UniProt P28223); experiment: biochemical; assay type: binding; details: read-out: 5-HT2A receptor binding inhibition constant Ki
[1] = biological target: human serotonin transporter (SERT) (Homo sapiens (Human), UniProt P31645); experiment: Human serotonin transporter (SERT) binding test; details: [3H]-citalopram, h-SERT/CHO cell membrane; read-out: h-SERT binding inhibition constant Ki
[2] = [3H]-ketanserin, human 5-HT2A receptor-expressed CHO cell membrane

Structure (SMILES) | Ki (human 5-HT2A receptor; [2]) [nM] | Ki (human 5-HT2A receptor) [nM] | Ki [1] [nM]
CNCc1cc(OCc2ccccc2)n(Cc2ccccc2)n1 [Example 1, 1-[l-benzyl-5-(benzyloxy)-1H-pyrazol-3-yl]-N-methylmethanamine] | 5.5 | – | –
CNCc1cc(OCc2ccccc2)n(CC2CCCCC2)n1 [Example 5, 1-[5-(benzyloxy)-1-(cyclohexylmethyl)-1H-pyrazol-3-yl]-N-methylmethanamine] | – | 5.9 | –
CNCc1cc(OCc2ccccc2F)n(CC2CCCCC2)n1 [Example 20, 1-{1-(cyclohexylmethyl)-5-[(2-fluorobenzyl)oxy]-1H-pyrazol-3-yl}-N-methylmethanamine] | 0.65 | – | 1.6
CNCc1cc(OCc2ccc(F)cc2Cl)n(CC2CCCCC2)n1 [Example 30, 1-{5-[(2-chloro-4-fluorobenzyl)oxy]-1-(cyclohexylmethyl)-1H-pyrazol-3-yl}-N-methylmethanamine] | 0.52 | – | 1.5
CNCc1cc(OCc2ccc(F)cc2C)n(CC2CCCCC2)n1 [Example 31, 1-{1-(cyclohexylmethyl)-5-[(4-fluoro-2-methylbenzyl)oxy]-1H-pyrazol-3-yl}-N-methylmethanamine] | – | 1.4 | –
CNCc1cc(OCc2cc(F)ccc2F)n(CC2CCCCC2)n1 [Example 33, 1-{1-(cyclohexylmethyl)-5-[(2,5-difluorobenzyl)oxy]-1H-pyrazol-3-yl}-N-methylmethanamine] | 0.5 | – | –
CNCc1cc(OCc2cc(F)ccc2Cl)n(CC2CCCCC2)n1 [Example 37, 1-{5-[(2-chloro-5-fluorobenzyl)oxy]-1-(cyclohexylmethyl)-1H-pyrazol-3-yl}-N-methylmethanamine] | – | 2.1 | 0.89
CNCc1cc(OCc2cc(Cl)ccc2Cl)n(CC2CCCCC2)n1 [Example 38, 1-{1-(cyclohexylmethyl)-5-[(2,5-dichlorobenzyl)oxy]-1H-pyrazol-3-yl}-N-methylmethanamine] | 3.2 | – | 2.4
CNCc1cc(OCc2ccc(F)cc2C)n(CC2CCCCO2)n1 (stereo not shown) [Example 108, 1-{5-[(4-fluoro-2-methylbenzyl)oxy]-1-(tetrahydro-2H-pyran-2-ylmethyl)-1H-pyrazolo-3-yl}-N-methylmethanamine] | 4.8 | – | 1.9
CNCc1cc(OCc2ccccc2)n(CC2CC3CCC2C3)n1 (stereo not shown) [Example 115, 1-[5-(benzyloxy)-1-(bicyclo[2.2.1]hept-2-ylmethyl)-1H-pyrazol-3-yl]-N-methylmethanamine] | 1 | – | –
CNCc1cc(OCc2cc(F)ccc2F)n(CC2CC3CCC2C3)n1 (stereo not shown) [Example 117, 1-{1-(bicyclo[2.2.1]hept-2-ylmethyl)-5-[(2,5-difluorobenzyl)oxy]-1H-pyrazol-3-yl}-N-methylmethanamine] | – | 0.76 | 0.5
CNCc1cc(OCc2cc(Cl)ccc2F)n(CC2CC3CCC2C3)n1 (stereo not shown) [Example 118, 1-{1-(bicyclo[2.2.1]hept-2-ylmethyl)-5-[(5-chloro-2-fluorobenzyl)oxy]-1H-pyrazol-3-yl}-N-methylmethanamine] | 0.73 | – | 2
CNCc1cc(OCc2cc(F)ccc2F)n(CC2CCC(F)(F)CC2)n1 [Example 124, 1-{5-[(2,5-difluorobenzyl)oxy]-1-[(4,4-difluorocyclohexyl)methyl]-1H-pyrazol-3-yl}-N-methylmethanamine] | 1.7 | – | 0.71
CNCc1cc(OCc2cc(F)ccc2F)n(CC2(F)CCCCC2)n1 [Example 127, 1-{5-[(2,5-difluorobenzyl)oxy]-1-[(1-fluorocyclohexyl)methyl]-1H-pyrazol-3-yl}-N-methylmethanamine] | – | – | 1.3
CNCc1cc(OCc2ccc(F)cc2)n(CC2CCCC2)n1 [Example 137, 1-{1-(cyclopentylmethyl)-5-[(4-fluorobenzyl)oxy]-1H-pyrazol-3-yl}-N-methylmethanamine] | 1.3 | – | –
CNCc1cc(OCc2ccccc2Cl)n(CC2CCCC2)n1 [Example 138, 1-{5-[(2-chlorobenzyl)oxy]-1-(cyclopentylmethyl)-1H-pyrazol-3-yl}-N-methylmethanamine] | 11 | – | 1.8
CNCc1cc(OCc2ccc(F)cc2F)n(CC2CCCC2)n1 [Example 144, 1-{1-(cyclopentylmethyl)-5-[(2,4-difluorobenzyl)oxy]-1H-pyrazol-3-yl}-N-methylmethanamine] | – | 0.2 | –
CNCc1cc(OCc2cc(Cl)ccc2F)n(CC2CCCC2)n1 [Example 148, 1-{5-[(5-chloro-2-fluorobenzyl)oxy]-1-(cyclopentylmethyl)-1H-pyrazol-3-yl}-N-methylmethanamine] | – | 1.8 | –
CNCc1cc(OCc2ccccc2C#N)n(CC2CCCC2)n1 [Example 162, 2-[({1-(cyclopentylmethyl)-3-[(methylamino)methyl]-1H-pyrazol-5-yl}oxy)methyl]benzonitrile] | – | 2.7 | 7.8
CNCc1cc(OCc2ccccc2F)n(Cc2ccc(F)cc2)n1 [Example 218, 1-{1-(4-fluorobenzyl)-5-[(2-fluorobenzyl)oxy]-1H-pyrazol-3-yl}-N-methylmethanamine] | – | 1.2 | –

Structure (SMILES) | Ki (human 5-HT2A receptor; [2]) [nM] | Ki (human 5-HT2A receptor) [nM] | Ki [1] [nM]
CNCc1cc(OCc2cc(F)ccc2F)n(Cc2ccc(F)cc2)n1 [Example 219, 1-{5-[(2,5-difluorobenzyl)oxy]-1-(4-fluorobenzyl)-1H-pyrazol-3-yl}-N-methylmethanamine] | 1.3 | – | –
CNCc1cc(OCc2cc(F)ccc2F)n(Cc2ccc(Cl)cc2)n1 [Example 224, 1-{1-(4-chlorobenzyl)-5-[(2,5-difluorobenzyl)oxy]-1H-pyrazol-3-yl}-N-methylmethanamine] | 1.2 | – | 1.5
CNCc1cc(OCc2cc(F)ccc2F)n(Cc2ccc(C)cc2)n1 [Example 230, 1-{5-[(2,5-difluorobenzyl)oxy]-1-(4-methylbenzyl)-1H-pyrazol-3-yl}-N-methylmethanamine] | 2.7 | – | –
CNCc1cc(OCc2cc(Cl)ccc2F)n(CC(C)C)n1 [Example 256, 1-{5-[(5-chloro-2-fluorobenzyl)oxy]-1-(2-methylpropyl)-1H-pyrazol-3-yl}-N-methylmethanamine] | 4.5 | – | –
CNCc1cc(OCc2cc(Cl)ccc2F)n(CC(C)(C)C)n1 [Example 259, 1-{5-[(5-chloro-2-fluorobenzyl)oxy]-1-(2,2-dimethylpropyl)-1H-pyrazol-3-yl}-N-methylmethanamine] | 7.5 | – | –
CNCc1cc(OCc2cc(F)ccc2F)n(CCC(C)(C)C)n1 [Example 266, 1-{5-[(2,5-difluorobenzyl)oxy]-1-(3,3-dimethylbutyl)-1H-pyrazol-3-yl}-N-methylmethanamine] | 0.65 | – | –
CNCc1cc(OCc2cc(F)c(F)cc2F)n(CC2CCCC2)n1 [Example 280, 1-{1-(cyclopentylmethyl)-5-[(2,4,5-trifluorobenzyl)oxy]-1H-pyrazol-3-yl}-N-methylmethanamine] | 1.3 | – | –
CNCc1cc(OCc2cc(F)c(F)cc2F)n(CCC(C)(C)C)n1 [Example 284, 1-{1-(3,3-dimethylbutyl)-5-[(2,4,5-trifluorobenzyl)oxy]-1H-pyrazol-3-yl}-N-methylmethanamine] | 1.8 | – | –
CNCc1cc(OCc2cc(F)c(F)cc2F)n(Cc2ccc(C)cc2)n1 [Example 286, N-methyl-1-{1-(4-methylbenzyl)-5-[(2,4,5-trifluorobenzyl)oxy]-1H-pyrazol-3-yl}methanamine] | 2.4 | – | –
CNCc1cc(OCc2ccccc2)n(C(C)C2CCCC2)n1 (stereo not shown) [Example 288, 1-[5-(benzyloxy)-1-(1-cyclopentylethyl)-1H-pyrazol-3-yl]-N-methylmethanamine] | – | 5.2 | –
CNCc1cc(OCc2cc(Cl)ccc2F)n(C(C)C2CCCC2)n1 (stereo not shown) [Example 291, 1-{5-[(5-chloro-2-fluorobenzyl)oxy]-1-(1-cyclopentylethyl)-1H-pyrazol-3-yl}-N-methylmethanamine] | 2.5 | – | 1.2
CNCc1cc(OCc2ccccc2)n(C(C)C2CCCCC2)n1 (stereo not shown) [Example 292, 1-[5-(benzyloxy)-1-(1-cyclohexylethyl)-1H-pyrazol-3-yl]-N-methylmethanamine] | 1.2 | – | 0.96
CNCc1cc(OCc2ccccc2F)n(C(C)C2CCCCC2)n1 (stereo not shown) [Example 293, 1-{1-(1-cyclohexylethyl)-5-[(2-fluorobenzyl)oxy]-1H-pyrazol-3-yl}-N-methylmethanamine] | 1.1 | – | 0.67
CNCc1cc(OCc2ccc(F)cc2)n(C(C)C2CCCCC2)n1 (stereo not shown) [Example 295, 1-{1-(1-cyclohexylethyl)-5-[(4-fluorobenzyl)oxy]-1H-pyrazol-3-yl}-N-methylmethanamine] | 0.74 | – | 0.95
CNC(C)c1cc(OCc2cc(F)ccc2F)n(CCC2CCCC2)n1 (stereo not shown) [Example 315, 1-{1-(2-cyclopentylethyl)-5-[(2,5-difluorobenzyl)oxy]-1H-pyrazol-3-yl}-N-methylethanamine] | 0.6 | – | –
CNCc1cc(OCc2ccccc2)n(C(CF)C2CCCCC2)n1 (stereo not shown) [Example 330, 1-[5-(benzyloxy)-1-(1-cyclohexyl-2-fluoroethyl)-1H-pyrazol-3-yl]-N-methylmethanamine] | – | 2.8 | –
CNCc1cc(OCc2cccc(Cl)c2)n(CC2CCc3ccccc3O2)n1 (stereo not shown) [Example 341, 1-{5-[(3-chlorobenzyl)oxy]-1-(3,4-dihydro-2H-chromen-2-ylmethyl)-1H-pyrazol-3-yl}-N-methylmethanamine] | – | 4.9 | –
Fc1ccc(F)c(COc2cc(CNC3CC3)nn2CC2CCCCC2)c1 [Example 342, N-({1-(cyclohexylmethyl)-5-[(2,5-difluorobenzyl)oxy]-1H-pyrazol-3-yl}methyl)cyclopropanamine] | 4.9 | – | –
CNCc1cc(OC(F)(F)c2ccccc2)n(CC2CCCCC2)n1 [Example 349, 1-{1-(cyclohexylmethyl)-5-[difluoro(phenyl)methoxy]-1H-pyrazol-3-yl}-N-methylmethanamine] | – | 6 | –
Cl.[2H]C([2H])(Oc1cc(CNC)nn1CC1CCCCC1)c1cc(F)ccc1F [Example 497, 1-[1-(Cyclohexylmethyl)-5-{[(2,5-difluorophenyl) (^2H2)methyl]oxy}-1H-pyrazol-3-yl]-N-methylmethanamine Hydrochloride] | 2.4 | – | –
